# Results from patent publication US20210221777A1, “NOVEL COMPOUNDS RELATED TO MY[…] METHODS OF TREATING CANCER” (priority 2020, published 2021).
# Like-named read-outs stand apart in the source and are kept apart here.
# Tests used:
# [1] = Shelf life / preservation studies (1H NMR)
# Description: Our final approach reinvestigating 1 involved exploring the relevance of the C(8)-OH stereocenter and labile C-14/C-19 diene system for their SAR significance related to the cytotoxicity of 1 against tumor cell lines.
# [2] = test system: hypoxia-induced factor (HIF-1) signaling in T47D breast tumor cells; conditions: cited from earlier work; for IC50: hypoxia-induced, read-out: IC50 against HIF-1 signaling
# [3] = test system: pancreatic (PANC-1) tumor cell lines; assay: Cytotoxicity vs. PANC-1 tumor cell line
# [4] = test system: pancreatic (PANC-1), liver (HepG2), and colon (HCT-116) tumor cell lines; assay: Cytotoxicity of fresh 1, summary over PANC-1, HepG2 and HCT-116; format: cell-based
# [5] = Sample storage degradation experiments a-e followed by LCMS; format: physicochemical; conditions: 24 hrs
# Description: Recent work in our laboratory using HPLC during the scale up isolation of mycothiazole (1) hinted that mycothiazole-4,19-diol (7)^6 may also be an artifact of isolation encountered during routine purification of degraded 1. To test this hypothesis, we subjected freshly purified 1 to a variety of sample storage experimental conditions (a-e) summarized in Table 2. Analytical (LCMS) data was used to determine purity outcomes of 1 in terms of its observed degradation which is summarized at the bottom of Table 2 and in FIG. 2. […] Furthermore, the diagnostic MS m/z ion peak (439, [M+H]^+)^6 characteristic of 7 was also observed in samples b-c and e, but not in a or d, as shown in FIG. 2. Selected examples included molecular ion peaks of 421 m/z and 437 m/z. We were unable to pursue full or even partial structure elucidation of these components or the observed 439 m/z ion peak, using NMR studies, due to insufficient material.
# [6] = test system: colon (HCT-116) tumor cell line; conditions: literature value, may be inaccurate due to compound degradation, read-out: HCT 116 IC50 (Sashidhara et al., 2009); cited from earlier work
# [7] = test system: human colon tumor (HCT-15) cell lines; conditions: Manta et al., read-out: GI50 against HCT-15; cited from earlier work
# solid tumor cell lines = conditions: read-out: cytotoxicity IC50 against a wide variety of solid tumor cell lines; range over literature cell lines; cited from earlier work
# [8] = test system: colon (HCT-116) tumor cell line; assay: Cytotoxicity vs. HCT 116 tumor cell line; format: cell-based; conditions: this work, ± SEM, N = 2
# [9] = read-out: PANC-1 IC50, PANC-1, this work, ± SEM, N = 2
# [10] = a) standard protocol: amber vial, Argon, dark desiccator under vacuum
# [11] = b) MeOH-O2 (air stream), amber vial, room temp. 22° C.
# [12] = c) MeOH-N2 (N2 stream), amber vial, room temp. 22° C.
# [13] = d) refrigeration 4° C., amber vial, Argon
# [14] = e) direct light (hv), clear vial, 24° C.
compound,measurement,setting,value
8-O-acetyl-mycothiazole [8-O-acetyl-mycothiazole (2)],time stable in preservation studies using 1H NMR,"[1]; stored by standard storage protocol (Table 2a), more stable than 1",≥ 6 months
same,IC50,[2],~1 nM
same,IC50,[3]; [9],1.3 nM
"C=CC/C=C\Cc1csc(C(C)(C)[C@H](O)C/C=C\C(=C)CCNC(=O)OC)n1 [mycothiazole (1), mycothiazole]",increase in potency of fresh 1 versus earlier data,"[4]; PANC-1, HepG2, HCT-116",tenfold increase
same,IC50,"[4]; range over PANC-1, HepG2, HCT-116, read-out: IC50 of fresh 1 across three tumor cell lines",0.16 to 0.36 nM
same,analytical LCMS data UV-PDA maximum absorbance units of 1,[5]; [10],500000 AU
same,purity outcomes of 1 involving its degradation,[5]; [10],minimal degradation
same,MS-TIC of visible impurity peaks,[5]; [11],~45% relative % relative abundance of m/z io
same,analytical LCMS data UV-PDA maximum absorbance units of 1,[5]; [11],500000 AU
same,purity outcomes of 1 involving its degradation,[5]; [11],partial degradation
same,MS-TIC of visible impurity peaks,[5]; [12],~45% relative % relative abundance of m/z io
same,analytical LCMS data UV-PDA maximum absorbance units of 1,[5]; [12],500000 AU
same,purity outcomes of 1 involving its degradation,[5]; [12],partial degradation
same,MS-TIC of visible impurity peaks,[5]; [13],~20% relative % relative abundance of m/z io
same,analytical LCMS data UV-PDA maximum absorbance units of 1,[5]; [13],500000 AU
same,purity outcomes of 1 involving its degradation,[5]; [13],minimal degradation
same,MS-TIC of visible impurity peaks,[5]; [14],~60% relative % relative abundance of m/z io
same,analytical LCMS data UV-PDA maximum absorbance units of 1,[5]; [14],280000 AU
same,purity outcomes of 1 involving its degradation,[5]; [14],severe degradation
same,shelf life,"[1]; pure 1, storage protocols a or d of Table 2",3-6 weeks
same,stability on storage,[1]; stored at 4° C.,unstable
same,IC50,[6],3.8 ± 0.24 nM
same,GI50,[7],44000 nM
same,IC50,[2],~1 nM
same,IC50,solid tumor cell lines,0.36 to 13.8 nM
same,IC50,"[3]; Homo sapiens, PANC-1, read-out: PANC-1 IC50",0.16 nM
"C=CC/C=C\Cc1csc(C(C)(C)C(=O)C/C=C\C(=C)CCNC(=O)OC)n1 [8-Oxo-mycothiazole (8), 8-oxo-mycothiazole]",fold less potent than 1 (cytotoxicity),"[3]; PANC-1, relative to 1","10,000 times"
same,IC50,[3]; [9],2000 nM
"C=CC/C=C\Cc1csc(C(C)(C)[C@H](O)C/C=C/C(O)(CO)CCNC(=O)OC)n1 (stereo partly drawn) [mycothiazole-4,19-diol (7), mycothiazole-4,19-diol, reference compound]",IC50,[8],> 1000 nM
same,times less potent than 1 or 2 at suppression of hypoxia-induced HIF-1 activation,[2],at least 1000 times
